In ChEMBL document CHEMBL1134304, “Discovery of novel p-arylthio cinnamides as antagonists of leukocyte function-associated antigen-1/intercellular adhesion molecule-1 interaction. 4. Structure-activity relationship of substituents on the benzene ring of the cinnamide” (J Med Chem, 2001):
One block for each compound: values may come before it.

How the values were obtained:
Integrin alpha-L [1] = molecular target: T1, Integrin alpha-L (Homo sapiens, UniProt P20701); assay: Inhibition of intercellular adhesion molecule-1 (ICAM-1) binding to recombinant LFA-1
T1 sequence (P20701 whole entry): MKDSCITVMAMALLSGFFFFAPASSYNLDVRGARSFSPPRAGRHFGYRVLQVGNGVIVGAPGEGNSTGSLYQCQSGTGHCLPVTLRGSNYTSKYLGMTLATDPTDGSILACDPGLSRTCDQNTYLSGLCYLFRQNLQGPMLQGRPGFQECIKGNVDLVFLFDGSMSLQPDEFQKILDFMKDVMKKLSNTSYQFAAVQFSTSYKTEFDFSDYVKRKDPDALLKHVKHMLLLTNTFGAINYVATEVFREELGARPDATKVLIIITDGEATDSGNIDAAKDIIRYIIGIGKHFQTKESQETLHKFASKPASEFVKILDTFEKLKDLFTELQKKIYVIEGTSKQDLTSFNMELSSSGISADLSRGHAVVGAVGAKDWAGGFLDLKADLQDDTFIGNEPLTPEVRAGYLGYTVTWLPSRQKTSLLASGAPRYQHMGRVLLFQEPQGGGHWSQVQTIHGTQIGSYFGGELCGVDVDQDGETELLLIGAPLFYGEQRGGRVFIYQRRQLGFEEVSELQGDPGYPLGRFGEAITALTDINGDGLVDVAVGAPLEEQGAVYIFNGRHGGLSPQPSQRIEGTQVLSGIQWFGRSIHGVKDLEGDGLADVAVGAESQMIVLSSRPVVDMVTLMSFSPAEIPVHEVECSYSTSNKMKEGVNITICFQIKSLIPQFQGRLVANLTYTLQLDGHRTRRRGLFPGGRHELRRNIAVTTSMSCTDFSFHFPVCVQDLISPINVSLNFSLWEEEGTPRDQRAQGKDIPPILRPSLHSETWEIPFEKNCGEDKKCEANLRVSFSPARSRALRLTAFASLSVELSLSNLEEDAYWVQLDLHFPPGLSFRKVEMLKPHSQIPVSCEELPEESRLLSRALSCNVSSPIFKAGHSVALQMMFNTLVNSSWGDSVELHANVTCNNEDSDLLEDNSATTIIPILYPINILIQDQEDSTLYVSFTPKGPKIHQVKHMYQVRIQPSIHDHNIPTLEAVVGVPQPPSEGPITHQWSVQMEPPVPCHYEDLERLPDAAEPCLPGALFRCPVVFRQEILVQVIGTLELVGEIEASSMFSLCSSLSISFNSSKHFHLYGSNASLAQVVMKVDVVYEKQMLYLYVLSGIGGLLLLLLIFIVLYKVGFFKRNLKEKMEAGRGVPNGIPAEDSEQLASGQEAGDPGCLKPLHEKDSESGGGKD

Integrin alpha-L [2] = molecular target: T1, Integrin alpha-L; assay: Inhibition of intercellular adhesion molecule-1 (ICAM-1) binding to recombinant LFA-1, range (5-8)
[3] = molecular target: T2, Intercellular adhesion molecule (ICAM-1), Integrin alpha-L/beta-2 (Homo sapiens, UniProt P05107+P20701); assay: Inhibition of LFA-1 mediated JY-8 cell adhesion to ICAM-1, range (2-9); type: functional, cell-based
[4] = molecular target: T2, Intercellular adhesion molecule (ICAM-1), Integrin alpha-L/beta-2
Integrin alpha-L [5] = molecular target: T1, Integrin alpha-L
Integrin alpha-L [6] = molecular target: T1, Integrin alpha-L; assay: Inhibition of intercellular adhesion molecule-1 (ICAM-1) binding to recombinant LFA-1, range (3600-5100)
Integrin alpha-L [7] = molecular target: T1, Integrin alpha-L; assay: Inhibition of intercellular adhesion molecule-1 (ICAM-1) binding to recombinant LFA-1, range(6-13)
[8] = molecular target: T2, Intercellular adhesion molecule (ICAM-1), Integrin alpha-L/beta-2; assay: Inhibition of LFA-1 mediated JY-8 cell adhesion to ICAM-1; type: functional, cell-based
Integrin alpha-L [9] = molecular target: T1, Integrin alpha-L; assay: Inhibition of intercellular adhesion molecule-1 (ICAM-1) binding to recombinant LFA-1, range(140-150)
Integrin alpha-L [10] = molecular target: T1, Integrin alpha-L; assay: Inhibition of intercellular adhesion molecule-1 (ICAM-1) binding to recombinant LFA-1, range (80-110)
Integrin alpha-L [11] = molecular target: T1, Integrin alpha-L; assay: Inhibition of intercellular adhesion molecule-1 (ICAM-1) binding to recombinant LFA-1, range(100-200)
[12] = molecular target: T2, Intercellular adhesion molecule (ICAM-1), Integrin alpha-L/beta-2; assay: Inhibition of LFA-1 mediated JY-8 cell adhesion to ICAM-1, range (100-600); type: functional, cell-based
Integrin alpha-L [13] = molecular target: T1, Integrin alpha-L; assay: Inhibition of intercellular adhesion molecule-1 (ICAM-1) binding to recombinant LFA-1, range (10400-11300)
Integrin alpha-L [14] = molecular target: T1, Integrin alpha-L; assay: Inhibition of intercellular adhesion molecule-1 (ICAM-1) binding to recombinant LFA-1, range (6-10)
[15] = molecular target: T2, Intercellular adhesion molecule (ICAM-1), Integrin alpha-L/beta-2; assay: Inhibition of LFA-1 mediated JY-8 cell adhesion to ICAM-1, range (3-10); type: functional, cell-based
Integrin alpha-L [16] = molecular target: T1, Integrin alpha-L; assay: Inhibition of intercellular adhesion molecule-1 (ICAM-1) binding to recombinant LFA-1, range (260-270)
Integrin alpha-L [17] = molecular target: T1, Integrin alpha-L; assay: Inhibition of intercellular adhesion molecule-1 (ICAM-1) binding to recombinant LFA-1, range(120-140)
Integrin alpha-L [18] = molecular target: T1, Integrin alpha-L; assay: Inhibition of intercellular adhesion molecule-1 (ICAM-1) binding to recombinant LFA-1, range(6-9)
[19] = molecular target: T2, Intercellular adhesion molecule (ICAM-1), Integrin alpha-L/beta-2; assay: Inhibition of LFA-1 mediated JY-8 cell adhesion to ICAM-1, range (6-10); type: functional, cell-based
Integrin alpha-L [20] = molecular target: T1, Integrin alpha-L; remark: listed apart in the source
Integrin alpha-L [21] = molecular target: T1, Integrin alpha-L; assay: Inhibition of intercellular adhesion molecule-1 (ICAM-1) binding to recombinant LFA-1, range (2500-11500)
Integrin alpha-L [22] = molecular target: T1, Integrin alpha-L; assay: Inhibition of intercellular adhesion molecule-1 (ICAM-1) binding to recombinant LFA-1, range(50-60)
[23] = molecular target: T2, Intercellular adhesion molecule (ICAM-1), Integrin alpha-L/beta-2; assay: Inhibition of LFA-1 mediated JY-8 cell adhesion to ICAM-1, range (30-170); type: functional, cell-based
Integrin alpha-L [24] = molecular target: T1, Integrin alpha-L; remark: listed apart in the source

T2 sequence (P05362 whole entry, one chain of several, further chain): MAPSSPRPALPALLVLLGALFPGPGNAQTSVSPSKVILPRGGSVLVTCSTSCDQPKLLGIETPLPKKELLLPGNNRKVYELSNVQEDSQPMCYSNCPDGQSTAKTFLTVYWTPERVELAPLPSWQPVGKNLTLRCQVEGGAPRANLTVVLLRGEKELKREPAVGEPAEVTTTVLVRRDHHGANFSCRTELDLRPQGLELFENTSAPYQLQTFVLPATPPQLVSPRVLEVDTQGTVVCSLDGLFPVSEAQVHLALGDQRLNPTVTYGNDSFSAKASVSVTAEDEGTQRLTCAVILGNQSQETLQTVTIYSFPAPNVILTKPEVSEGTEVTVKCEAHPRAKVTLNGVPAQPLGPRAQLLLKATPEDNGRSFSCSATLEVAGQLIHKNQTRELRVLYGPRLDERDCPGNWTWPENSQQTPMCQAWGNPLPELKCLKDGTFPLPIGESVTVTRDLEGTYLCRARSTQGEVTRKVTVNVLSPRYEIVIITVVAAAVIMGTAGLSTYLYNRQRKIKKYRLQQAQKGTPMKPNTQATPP
T2 sequence (P05107 whole entry, one chain of several): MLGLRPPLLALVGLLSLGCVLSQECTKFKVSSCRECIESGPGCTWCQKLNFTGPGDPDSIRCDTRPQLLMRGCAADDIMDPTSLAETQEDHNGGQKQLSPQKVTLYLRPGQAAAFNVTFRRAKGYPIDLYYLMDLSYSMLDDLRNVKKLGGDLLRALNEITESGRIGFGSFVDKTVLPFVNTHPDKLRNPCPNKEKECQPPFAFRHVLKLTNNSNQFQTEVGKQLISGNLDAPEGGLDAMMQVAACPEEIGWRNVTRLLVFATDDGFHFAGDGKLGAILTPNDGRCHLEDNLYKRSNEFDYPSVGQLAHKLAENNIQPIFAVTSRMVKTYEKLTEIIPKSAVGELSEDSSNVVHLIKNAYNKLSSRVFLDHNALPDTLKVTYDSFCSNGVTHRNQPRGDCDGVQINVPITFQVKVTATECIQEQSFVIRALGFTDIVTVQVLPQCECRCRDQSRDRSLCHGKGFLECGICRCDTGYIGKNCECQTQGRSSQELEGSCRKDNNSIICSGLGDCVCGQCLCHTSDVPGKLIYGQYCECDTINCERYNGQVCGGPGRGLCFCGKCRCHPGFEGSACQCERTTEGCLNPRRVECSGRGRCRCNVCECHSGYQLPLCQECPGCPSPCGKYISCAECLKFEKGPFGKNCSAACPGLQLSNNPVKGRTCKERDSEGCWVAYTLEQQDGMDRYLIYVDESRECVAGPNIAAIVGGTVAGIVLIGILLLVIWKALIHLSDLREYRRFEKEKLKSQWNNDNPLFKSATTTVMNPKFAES

IC50 (Integrin alpha-L [1]): > 20000 nM
Compound: COc1ccccc1Sc1cc(Cl)c(/C=C/C(=O)N2CCC(C(=O)O)CC2)cc1Cl

IC50 (Integrin alpha-L [2]): 6 nM
IC50 [3]: 4 nM
Compound: COc1ccccc1Sc1ccc(/C=C/C(=O)N2CCC(C(=O)O)CC2)c(C(F)(F)F)c1Cl

Compound: COc1ccccc1Sc1ccc(/C=C/C(=O)N2CCC(C(=O)O)CC2)c(C(F)(F)F)c1C(F)(F)F
IC50 [4]: 0.1 nM
IC50 (Integrin alpha-L [5]): 5 nM

IC50 (Integrin alpha-L [6]): 4300 nM
Compound: CC(=O)N1CCN(C(=O)/C=C/c2ccc(Sc3ccc(Cl)cc3Cl)cc2)CC1

IC50 (Integrin alpha-L [7]): 10 nM
IC50 [8]: 6 nM
Compound: COc1ccccc1Sc1ccc(/C=C/C(=O)N2CCOCC2)c(Cl)c1Cl

IC50 (Integrin alpha-L [9]): 145 nM
Compound: O=C(O)C1CCN(C(=O)/C=C/c2ccc(Sc3ccc4c(c3)OCCO4)c(Cl)c2)CC1

IC50 (Integrin alpha-L [10]): 90 nM
Compound: COc1ccccc1Sc1ccc(/C=C/C(=O)N2CCOCC2)c(C)c1C

IC50 (Integrin alpha-L [11]): 140 nM
IC50 [12]: 130 nM
Compound: CC(=O)N1CCN(C(=O)/C=C/c2ccc(Sc3ccc(Cl)cc3Cl)c(Cl)c2)CC1

IC50 (Integrin alpha-L [13]): 10700 nM
Compound: COc1ccccc1Sc1ccc(/C=C/C(=O)N2CCN(C(C)=O)CC2)cc1OC

IC50 (Integrin alpha-L [14]): 8 nM
IC50 [15]: 5 nM
Compound: COc1ccccc1Sc1ccc(/C=C/C(=O)N2CCOCC2)c(C(F)(F)F)c1Cl

IC50 (Integrin alpha-L [16]): 265 nM
Compound: COc1ccccc1Sc1ccc(/C=C/C(=O)N2CCC(C(=O)O)CC2)c(C(F)(F)F)c1

IC50 (Integrin alpha-L [17]): 139 nM
Compound: CC(=O)N1CCN(C(=O)/C=C/c2ccc(Sc3ccc4c(c3)OCCO4)c([N+](=O)[O-])c2)CC1

IC50 (Integrin alpha-L [18]): 7 nM
IC50 [19]: 8 nM
Compound: CC(=O)N1CCN(C(=O)/C=C/c2ccc(Sc3ccc4c(c3)OCCO4)c(Cl)c2Cl)CC1

Compound: O=C(/C=C/c1ccc(Sc2ccc3c(c2)OCCO3)c(C(F)(F)F)c1)N1CCOCC1
IC50 (Integrin alpha-L [20]): 30 nM

IC50 (Integrin alpha-L [21]): 3900 nM
Compound: COc1ccccc1Sc1ccc(/C=C/C(=O)N2CCN(C(C)=O)CC2)c(F)c1

IC50 (Integrin alpha-L [22]): 55 nM
IC50 [23]: 60 nM
Compound: CC(=O)N1CCN(C(=O)/C=C/c2ccc(Sc3ccc4c(c3)OCCO4)c(C(F)(F)F)c2)CC1

Compound: O=C(O)C1CCN(C(=O)/C=C/c2ccc(Sc3ccc4c(c3)OCCO4)c3ccccc23)CC1
IC50 (Integrin alpha-L [24]): 295 nM

IC50 (Integrin alpha-L [1]): > 20000 nM
Compound: COc1ccccc1Sc1cc(C)c(/C=C/C(=O)N2CCC(C(=O)O)CC2)cc1[N+](=O)[O-]
